Assay results published in patent US20250145665A1, “MACROCYCLIC PEPTIDES USEFUL AS MODULATORS OF TNF ALPHA” (Bristol-Myers Squibb Company, priority 2023, published 2025).
Each block holds one molecule with its values, some of them ahead of it. Positions of bridges follow the written chain, without caps; N, C: chain ends. Non-standard residues stand in square brackets, D forms with d. Residues, ends and D or L forms follow the SMILES beside them. Bip(4'-COOH) = N[C@@H](Cc1ccc(-c2ccc(C(=O)O)cc2)cc1)C(=O)O; Bip(4'-NHAc) = CC(=O)Nc1ccc(-c2ccc(C[C@H](N)C(=O)O)cc2)cc1; Ala(morpholin-4-yl) = N[C@@H](CN1CCOCC1)C(=O)O; Bip = N[C@@H](Cc1ccc(-c2ccccc2)cc1)C(=O)O; 2Pal = N[C@@H](Cc1ccccn1)C(=O)O; Chg = N[C@H](C(=O)O)C1CCCCC1; Aze = O=C(O)[C@@H]1CCN1; Sar = CNCC(=O)O

Target: TNFα (Homo sapiens, UniProt P01375)
Assay: TNF-Induced HEK-Blue Assay
Format: cell-based
Conditions: HEK-Blue-CD40L cells, NF-kB-driven secreted alkaline phosphatase reporter; TNFα 0.5 ng/ml; 18 h; read-out: TNF induced HEK-Blue assay IC50 value

Chain of TNFα (P01375 77-233 limits assumed): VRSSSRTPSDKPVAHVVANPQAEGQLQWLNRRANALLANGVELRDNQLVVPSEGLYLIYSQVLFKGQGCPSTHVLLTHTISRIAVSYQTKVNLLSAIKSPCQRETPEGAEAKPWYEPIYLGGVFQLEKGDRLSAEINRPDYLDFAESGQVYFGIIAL

Compound: CC(=O)Nc1ccc(-c2ccc(C[C@@H]3NC(=O)[C@H](Cc4ccc(-c5ccccc5)cc4)NC(=O)[C@H](CN4CCOCC4)NC(=O)CSC[C@@H](C(=O)NCC(N)=O)NC(=O)[C@H](CC(C)C)NC(=O)[C@H](CCCNC(=N)N)NC(=O)[C@H](C4CCCCC4)NC(=O)[C@@H]4CCCN4C(=O)[C@H](C(C)C)NC(=O)[C@@H](CCCNC(=N)N)NC(=O)[C@H](CC(=O)O)NC(=O)[C@H](Cc4ccccn4)NC(=O)CN(C)C3=O)cc2)cc1 [Example 201] ({CH2CO}-[Ala(morpholin-4-yl)][Bip][Bip(4'-NHAc)][Sar][2Pal]D[dR]VP[Chg]RLCG-NH2; thioether N-13)
- IC50: < 0.05 µM

Compound: CC(C)C[C@@H]1NC(=O)[C@H](CCCNC(=N)N)NC(=O)[C@H](C(C)C)NC(=O)[C@@H]2CCCN2C(=O)[C@H](C(C)C)NC(=O)[C@@H](CCCNC(=N)N)NC(=O)[C@H](CC(=O)O)NC(=O)[C@@H]2CCCN2C(=O)CN(C)C(=O)[C@H](Cc2ccc(-c3ccccc3)cc2)NC(=O)[C@H](Cc2ccc(-c3ccccc3)cc2)NC(=O)[C@H](CN2CCOCC2)NC(=O)CSC[C@@H](C(=O)NCC(N)=O)NC1=O [Example 202] ({CH2CO}-[Ala(morpholin-4-yl)][Bip][Bip][Sar]PD[dR]VPVRLCG-NH2; thioether N-13)
- IC50: 0.2 to 2 µM

Compound: CC(=O)Nc1ccc(-c2ccc(C[C@@H]3NC(=O)[C@H](Cc4ccc(-c5ccccc5)cc4)NC(=O)[C@H](CN4CCOCC4)NC(=O)CSC[C@@H](C(=O)NCC(N)=O)NC(=O)[C@H](CC(C)C)NC(=O)[C@H](CCCNC(=N)N)NC(=O)[C@H](C(C)C)NC(=O)[C@@H]4CCCN4C(=O)[C@H](C(C)C)NC(=O)[C@@H](CCCNC(=N)N)NC(=O)[C@H](CC(=O)O)NC(=O)[C@H](Cc4ccccn4)NC(=O)CN(C)C3=O)cc2)cc1 [Example 203] ({CH2CO}-[Ala(morpholin-4-yl)][Bip][Bip(4'-NHAc)][Sar][2Pal]D[dR]VPVRLCG-NH2; thioether N-13)
- IC50: < 0.05 µM

Compound: CC(C)C[C@@H]1NC(=O)[C@H](CCCNC(=N)N)NC(=O)[C@H](C2CCCCC2)NC(=O)[C@@H]2CCCN2C(=O)[C@H](C(C)C)NC(=O)[C@@H](CCCNC(=N)N)NC(=O)[C@H](CC(=O)O)NC(=O)[C@H](Cc2ccccn2)NC(=O)CN(C)C(=O)[C@H](Cc2ccc(-c3ccccc3)cc2)NC(=O)[C@H](Cc2ccc(-c3ccccc3)cc2)NC(=O)[C@H](CN2CCOCC2)NC(=O)CSC[C@@H](C(=O)NCC(N)=O)NC1=O [Example 204] ({CH2CO}-[Ala(morpholin-4-yl)][Bip][Bip][Sar][2Pal]D[dR]VP[Chg]RLCG-NH2; thioether N-13)
- IC50: 0.05 to 0.2 µM

Compound: CC(C)C[C@@H]1NC(=O)[C@H](CCCNC(=N)N)NC(=O)[C@H](C(C)C)NC(=O)[C@@H]2CCCN2C(=O)[C@H](C(C)C)NC(=O)[C@@H](CCCNC(=N)N)NC(=O)[C@H](CC(=O)O)NC(=O)[C@H](Cc2ccccn2)NC(=O)CN(C)C(=O)[C@H](Cc2ccc(-c3ccccc3)cc2)NC(=O)[C@H](Cc2ccc(-c3ccccc3)cc2)NC(=O)[C@H](CN2CCOCC2)NC(=O)CSC[C@@H](C(=O)NCC(N)=O)NC1=O [Example 205] ({CH2CO}-[Ala(morpholin-4-yl)][Bip][Bip][Sar][2Pal]D[dR]VPVRLCG-NH2; thioether N-13)
- IC50: 0.05 to 0.2 µM

Compound: CC(C)C[C@@H]1NC(=O)[C@H](CCCNC(=N)N)NC(=O)[C@H](C2CCCCC2)NC(=O)[C@@H]2CCCN2C(=O)[C@H](C(C)C)NC(=O)[C@@H](CCCNC(=N)N)NC(=O)[C@H](CC(=O)O)NC(=O)[C@@H]2CCCN2C(=O)CN(C)C(=O)[C@H](Cc2ccc(-c3ccccc3)cc2)NC(=O)[C@H](Cc2ccc(-c3ccccc3)cc2)NC(=O)[C@H](CN2CCOCC2)NC(=O)CSC[C@@H](C(=O)NCC(N)=O)NC1=O [Example 206] ({CH2CO}-[Ala(morpholin-4-yl)][Bip][Bip][Sar]PD[dR]VP[Chg]RLCG-NH2; thioether N-13)
- IC50: < 0.05 µM

Compound: CC(C)C[C@@H]1NC(=O)[C@H](CCCNC(=N)N)NC(=O)[C@H](C2CCCCC2)NC(=O)[C@@H]2CCCN2C(=O)[C@H](C(C)C)NC(=O)[C@H](CCCNC(=N)N)NC(=O)[C@H](CC(=O)O)NC(=O)[C@@H]2CCCN2C(=O)CN(C)C(=O)[C@H](Cc2ccc(-c3ccccc3)cc2)NC(=O)[C@H](Cc2ccc(-c3ccccc3)cc2)NC(=O)[C@H](CN2CCOCC2)NC(=O)CSC[C@@H](C(=O)NCC(N)=O)NC1=O [Example 207] ({CH2CO}-[Ala(morpholin-4-yl)][Bip][Bip][Sar]PDRVP[Chg]RLCG-NH2; thioether N-13)
- IC50: 0.2 to 2 µM

Second part, the molecule after the results:

- IC50: 0.05 to 0.2 µM
Compound: CC(=O)Nc1ccc(-c2ccc(C[C@@H]3NC(=O)[C@H](Cc4ccc(-c5ccccc5)cc4)NC(=O)[C@H](CN4CCOCC4)NC(=O)CSC[C@@H](C(=O)NCC(N)=O)NC(=O)[C@H](CC(C)C)NC(=O)[C@H](Cc4ccc(O)cc4)NC(=O)[C@H](C(C)C)NC(=O)[C@@H]4CCCN4C(=O)[C@H](C(C)C)NC(=O)[C@H](CCCNC(=N)N)NC(=O)[C@H](CC(=O)O)NC(=O)[C@H](Cc4ccccn4)NC(=O)CN(C)C3=O)cc2)cc1 [Example 208] ({CH2CO}-[Ala(morpholin-4-yl)][Bip][Bip(4'-NHAc)][Sar][2Pal]DRVPVYLCG-NH2; thioether N-13)

- IC50: 0.2 to 2 µM
Compound: CC(C)C[C@@H]1NC(=O)[C@H](Cc2ccc(O)cc2)NC(=O)[C@H](C2CCCCC2)NC(=O)[C@@H]2CCCN2C(=O)[C@H](C(C)C)NC(=O)[C@@H](CCCNC(=N)N)NC(=O)[C@H](CC(=O)O)NC(=O)[C@@H]2CCCN2C(=O)CN(C)C(=O)[C@H](Cc2ccc(-c3ccccc3)cc2)NC(=O)[C@H](Cc2ccc(-c3ccccc3)cc2)NC(=O)[C@H](CN2CCOCC2)NC(=O)CSC[C@@H](C(=O)NCC(N)=O)NC1=O [Example 209] ({CH2CO}-[Ala(morpholin-4-yl)][Bip][Bip][Sar]PD[dR]VP[Chg]YLCG-NH2; thioether N-13)

- IC50: < 0.05 µM
Compound: CC(=O)Nc1ccc(-c2ccc(C[C@@H]3NC(=O)[C@H](Cc4ccc(-c5ccccc5)cc4)NC(=O)[C@H](CN4CCOCC4)NC(=O)CSC[C@@H](C(=O)NCC(N)=O)NC(=O)[C@H](CC(C)C)NC(=O)[C@H](Cc4ccc(O)cc4)NC(=O)[C@H](C4CCCCC4)NC(=O)[C@@H]4CCCN4C(=O)[C@H](C(C)C)NC(=O)[C@H](CCCNC(=N)N)NC(=O)[C@H](CC(=O)O)NC(=O)[C@@H]4CCCN4C(=O)CN(C)C3=O)cc2)cc1 [Example 210] ({CH2CO}-[Ala(morpholin-4-yl)][Bip][Bip(4'-NHAc)][Sar]PDRVP[Chg]YLCG-NH2; thioether N-13)

- IC50: 0.2 to 2 µM
Compound: CC(=O)Nc1ccc(-c2ccc(C[C@@H]3NC(=O)[C@H](Cc4ccc(-c5ccccc5)cc4)NC(=O)[C@H](CN4CCOCC4)NC(=O)CSC[C@@H](C(=O)NCC(N)=O)NC(=O)[C@H](CC(C)C)NC(=O)[C@H](Cc4cnc[nH]4)NC(=O)[C@H](C(C)C)NC(=O)[C@@H]4CCCN4C(=O)[C@H](C(C)C)NC(=O)[C@@H](CCCNC(=N)N)NC(=O)[C@H](CC(=O)O)NC(=O)[C@H](Cc4cnc[nH]4)NC(=O)CN(C)C3=O)cc2)cc1 [Example 211] ({CH2CO}-[Ala(morpholin-4-yl)][Bip][Bip(4'-NHAc)][Sar]HD[dR]VPVHLCG-NH2; thioether N-13)

- IC50: < 0.05 µM
Compound: CC(=O)Nc1ccc(-c2ccc(C[C@@H]3NC(=O)[C@H](Cc4ccc(-c5ccccc5)cc4)NC(=O)[C@H](CN4CCOCC4)NC(=O)CSC[C@@H](C(=O)NCC(N)=O)NC(=O)[C@H](CC(C)C)NC(=O)[C@H](CCCNC(=N)N)NC(=O)[C@H](C(C)C)NC(=O)[C@@H]4CCCN4C(=O)[C@H](C(C)C)NC(=O)[C@@H](CCCNC(=N)N)NC(=O)[C@H](CC(=O)O)NC(=O)[C@H](Cc4cnc[nH]4)NC(=O)CN(C)C3=O)cc2)cc1 [Example 212] ({CH2CO}-[Ala(morpholin-4-yl)][Bip][Bip(4'-NHAc)][Sar]HD[dR]VPVRLCG-NH2; thioether N-13)

- IC50: < 0.05 µM
Compound: CC(=O)Nc1ccc(-c2ccc(C[C@@H]3NC(=O)[C@H](Cc4ccc(-c5ccccc5)cc4)NC(=O)[C@H](CN4CCOCC4)NC(=O)CSC[C@@H](C(=O)NCC(N)=O)NC(=O)[C@H](CC(C)C)NC(=O)[C@H](Cc4cnc[nH]4)NC(=O)[C@H](C(C)C)NC(=O)[C@@H]4CCCN4C(=O)[C@H](C(C)C)NC(=O)[C@@H](CCCNC(=N)N)NC(=O)[C@H](CC(=O)O)NC(=O)[C@H](Cc4ccc(O)cc4)NC(=O)CN(C)C3=O)cc2)cc1 [Example 213] ({CH2CO}-[Ala(morpholin-4-yl)][Bip][Bip(4'-NHAc)][Sar]YD[dR]VPVHLCG-NH2; thioether N-13)

- IC50: 0.2 to 2 µM
Compound: CC(C)C[C@@H]1NC(=O)[C@H](Cc2ccccc2)NC(=O)[C@H](C(C)C)NC(=O)[C@@H]2CCCN2C(=O)[C@H](C(C)C)NC(=O)[C@@H](CCCNC(=N)N)NC(=O)[C@H](CC(=O)O)NC(=O)[C@H](Cc2ccccc2)NC(=O)CN(C)C(=O)[C@H](Cc2ccc(-c3ccccc3)cc2)NC(=O)[C@H](Cc2ccc(-c3ccc(C(=O)O)cc3)cc2)NC(=O)[C@H](CN2CCOCC2)NC(=O)CSC[C@@H](C(=O)NCC(N)=O)NC1=O [Example 216] ({CH2CO}-[Ala(morpholin-4-yl)][Bip(4'-COOH)][Bip][Sar]FD[dR]VPVFLCG-NH2; thioether N-13)

- IC50: 0.05 to 0.2 µM
Compound: CC(=O)Nc1ccc(-c2ccc(C[C@@H]3NC(=O)[C@H](Cc4ccc(-c5ccccc5)cc4)NC(=O)[C@H](CN4CCOCC4)NC(=O)CSC[C@@H](C(=O)NCC(N)=O)NC(=O)[C@H](CC(C)C)NC(=O)[C@H](Cc4ccccc4)NC(=O)[C@H](C(C)C)NC(=O)[C@@H]4CCN4C(=O)[C@H](C(C)C)NC(=O)[C@@H](CCCNC(=N)N)NC(=O)[C@H](CC(=O)O)NC(=O)[C@H](Cc4ccccc4)NC(=O)CN(C)C3=O)cc2)cc1 [Example 217] ({CH2CO}-[Ala(morpholin-4-yl)][Bip][Bip(4'-NHAc)][Sar]FD[dR]V[Aze]VFLCG-NH2; thioether N-13)

- IC50: 0.05 to 0.2 µM
Compound: CC(=O)Nc1ccc(-c2ccc(C[C@@H]3NC(=O)[C@H](Cc4ccc(-c5ccccc5)cc4)NC(=O)[C@H](CN4CCOCC4)NC(=O)CSC[C@@H](C(=O)NCC(N)=O)NC(=O)[C@H](CC(C)C)NC(=O)[C@H](CCCNC(=N)N)NC(=O)[C@H](C4CCCCC4)NC(=O)[C@@H]4CCCN4C(=O)[C@H](CC(N)=O)NC(=O)[C@@H](CCCNC(=N)N)NC(=O)[C@H](CC(=O)O)NC(=O)[C@H](Cc4ccccn4)NC(=O)CN(C)C3=O)cc2)cc1 [Example 218] ({CH2CO}-[Ala(morpholin-4-yl)][Bip][Bip(4'-NHAc)][Sar][2Pal]D[dR]NP[Chg]RLCG-NH2; thioether N-13)
